These results are taken from PMC12660299, “Isoliquiritigenin Attenuates Staphylococcus aureus Adhesion and Invasion to Counteract Staphylococcus aureus Pathogenicity and Infection” (Frontiers in Cellular and Infection Microbiology, 2025).

The target of this test is T1, sortase A (SrtA) (Staphylococcus aureus, UniProt Q2FV99).
T1 construct: recombinant SrtAΔN59
The experiment in a line: FRET peptide-cleavage assay with purified recombinant SrtA; supported by fluorescence quenching (Ka = […] L/mol) and reversibility by dilution. It is filed as biochemical.

T1 sequence (Q2FV99 60-206): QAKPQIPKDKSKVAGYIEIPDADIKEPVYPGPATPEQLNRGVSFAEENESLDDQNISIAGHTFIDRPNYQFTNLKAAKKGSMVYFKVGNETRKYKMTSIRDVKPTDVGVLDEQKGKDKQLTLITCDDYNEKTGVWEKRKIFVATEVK

The IC50 is the concentration that gives 50% inhibition. On to `O=C(/C=C/c1ccc(O)cc1)c1ccc(O)cc1O` [ISL, isoliquiritigenin], for which the 50% inhibitory concentration (IC50) is 52.1 µM.
